Experimental data reported in US5620960A, “Use of D-allose as an immunosuppressive agent” (UOP, priority 1994, dated 1997).
“Also recorded” adds a separate entry of the source.

Experiments:
bone marrow = assay: 28-day rat gavage study: Bone Marrow smears; assay type: in vivo, rat (Crl:CD®BR)
Description: (§1) D-allose or deionized water was administered to 15 male and 15 female rats (Crl:CD®BR rats approximately 4 weeks of age from Charles River Laboratories) by gavage once daily for 28 days at dosage levels of D-allose of 3.1 and 5.1 g/Kg/day.
(§2) Each rat was observed twice daily for mortality, morbidity and overt signs of toxicity. Detailed observations were performed once during each study week. Individual body weights, food consumption, food efficiency and water consumption were recorded daily. Hematology, biochemistry and urinalysis evaluations were conducted on all male and female animals during the last week of study. At study termination, all animals were euthanized. […] A complete set of major tissues and organs was harvested and selected organ weights were determined. Protocol-specified tissues were processed histologically and microscopic examination was conducted.
(§3) As a result, bone marrow smears were examined for all animals.

salmonella = assay: salmonella/mammalian--microsome reverse mutation assay; assay type: cell-based
From the text: 1) salmonella/mammalian--microsome reverse mutation assay;

human lymphocytes = assay type: cell-based
From the text: 5) sister chromatid exchange in human lymphocytes with and without activation.

major tissues and organs = assay: 28-day rat gavage study: Anatomic Pathology (necropsy and histopathology); assay type: in vivo, rat (Crl:CD®BR); details: 28 days gavage, listed organs
Description: as §1, §2

[1] = system: chinese hamster ovary cells; assay type: cell-based
From the text: 3) chromosomal aberrations in chinese hamster ovary cells;

Male Rats = assay: Acute Oral Toxicity Study in Male Rats; assay type: in vivo, rat
From the text: Acute Oral Toxicity Study in Male Rats

Crl:CD®BR rats = system: Crl:CD®BR rats; parameters: species or system rat (Crl:CD®BR); details: rat, in vivo
Description: as §1, §2
The rats were observed twice daily for signs of overt toxicity at the times of the morbidity/mortality checks. Detailed observations were conducted once each study week during the 28 days of the study.
Individual body weights were recorded daily for the 28 days of the study.
For the first 28 days of the study, individual food consumption was recorded daily and food efficiency was calculated. […] Increases and decreases occurred in food efficiency values for males and females at all treatment levels, with no obvious trend.
Individual water consumption was recorded daily for the 28 days of the study.

[2] = rat, in vivo
From the text: (§4) This study was patterned after that Example 1 where a satellite group of animals received radiolabeled D-allose to establish excretion routes. On day 28, the animals in the satellite groups (5 controls, 5 males and 5 females) received a single dose of [^14 C]D-allose for-study days 1-28 at the same dose concentration as the non-radiolabeled material except for the "Control Satellite Group" which received a single high dose containing radiolabeled D-allose.
(§5) On days 1-27, all control group animals (main and satellite) received deionized water at the same dosage volume as the test animals. However, on day 28 the satellite control animals became "Unadapted High Dose Test Animals" in that they received a high dose (5.1 g/kg) of radiolabeled D-allose. In this manner the "Unadapted High Dose Test Animals" could be directly compared to the multiple high dose animals which were adapted by administration of the high dose for 28 days.
HPLC (High Pressure Liquid Chromatography) of urine from treated animals was compared with C^14 radiolabeled D-allose spiked urine from control animals.

[3] = 28-day rat gavage study: Biochemistry and urinalysis; assay type: in vivo, rat (Crl:CD®BR); details: 28 days
Description: as §1, §2
(§6) Clinical laboratory studies were conducted on all main animals at termination of study. Blood samples were obtained from the orbital sinus following an overnight fasting period in which water was available. Urine was collected during the fasting period.

water solubility = assay type: physicochemical
Balb cells = assay type: cell-based
From the text: 4) in vitro transformation of Balb cells;

mouse lymphoma = assay type: cell-based
From the text: 2) mouse lymphoma forward mutation assay;

[4] = D-allose Excretion Routes ([^14 C]D-allose, liquid scintillation counting); assay type: in vivo, rat
From the text: as §4, §5
Each rat was observed twice daily for mortality, morbidity and overt signs of toxicity. Detailed observations were performed once during each study week. Individual body weights, food consumption, food efficiency and water consumption were recorded daily. […] Feces samples were collected at 24, 48, 72 and 96 hours after radiolabeled dosing from the satellite group animals. Duplicate aliquots of expired air solution, urine, feces and cage wash were analyzed by liquid scintillation counting (LSC). At study termination, all animals were euthanized. The carcasses from the satellite groups were analyzed for radioactive content only.

[5] = system: segmented neutrophils, leukocytes, erythrocytes, platelets; assay: 28-day rat gavage study: Hematology (blood cell counts); assay type: in vivo, rat (Crl:CD®BR); details: for Segmented Neutrophils (mean): terminal (28 days); for Segmented Neutrophils (mean) / Band Neutrophils (mean) / Basophils (mean) / Other Cells (mean) / Eosinophils (mean) / Monocytes (mean) / Erythrocytes (mean) / Leukocytes (mean) / Platelets (mean) / Lymphocytes (mean): N 5; for Band Neutrophils (mean) / Basophils (mean) / Other Cells (mean) / Eosinophils (mean) / Monocytes (mean) / Erythrocytes (mean) / Leukocytes (mean) / Platelets (mean) / Lymphocytes (mean): terminal; for Band Neutrophils (mean) / Basophils (mean) / Other Cells (mean): control 0.0; for Leukocytes (mean): control 9.6; for Platelets (mean): p ≤ 0.01; for Lymphocytes (mean): control 7.4
Description: as §1, §2, §6, §3

[6] = acute oral, 5 grams/Kg, male rats
[7] = females, D-allose 3.1 g/kg/day, control 0.1
[8] = males, D-allose 3.1 g/kg/day, control 0.2
[9] = males, D-allose 5.1 g/kg/day, control 0.2

For `O=C[C@H](O)[C@H](O)[C@H](O)[C@H](O)CO` [D-allose], the “numbers of late stage neutrophils in bone marrow” value (bone marrow; 3.1 and 5.1 g/kg/day, most striking in the high dose groups) was “decreased numbers of late stage neutrophils”, the “mature myeloid cells in the bone marrow smears” value (bone marrow; 28 days gavage, rats) was “marked reduction in mature myeloid cells” and the “bone marrow erythroid series” value (bone marrow; all groups) was “well represented with a normal maturation sequence”. The “cytological integrity of the cells in the neutrophil series” value (bone marrow; both dosage groups (3.1 and 5.1 g/kg/day)) was “overall decrease in cytological integrity”, the “Myeloid to erythroid ratios in bone marrows” value (bone marrow; both treatment groups, usually, control approximately 1.6 to 3.0) was “less than 1.0” and the “bone marrow cellularity and megakaryocytes” value (bone marrow; control and both treatment groups) was “very cellular with adequate numbers of active megakaryocytes in varying stages of maturity”. The mutagenic properties (salmonella) was “no mutagenic properties”, the mutagenic properties (human lymphocytes) was “no mutagenic properties” and the “findings at necropsy or on histopathological examination” value (major tissues and organs) was “no treatment related findings”. For the same compound, the mutagenic properties [1] was “no mutagenic properties”, the body weight changes (Male Rats; [6]) was “no remarkable body weight changes” and the mortalities (Male Rats; [6]) was “no mortalities”. For the same compound, the pharmacotoxic signs (Male Rats; [6]) was “no pharmacotoxic signs”, the visible post-mortem abnormalities (Male Rats; rat, in vivo, po) was “no visible post-mortem abnormalities” and the “effect on appearance or behavior (clinical signs)” value (Crl:CD®BR rats) was “no definitive D-allose-related effect”. For the same compound, the “mean food consumption values or mean food efficiency values” (Crl:CD®BR rats) was “no D-allose-related effect”, the “mean water consumption values” (Crl:CD®BR rats) was “no D-allose-related effect” and the “HPLC of urine from treated animals” value [2] was “major peak corresponding to the spiked D-allose peak”. For the same compound, the “undigested D-allose in the urine” value [2] was “confirmed the presence of undigested D-allose in the urine”, the Cholesterol ([3]; males, high dose (5.1 g/kg/day), vs. 51 mg/dl, significantly increased) was 72 mg/dL and the pH ([3]; treated animals) was “decreased”. The Urine volumes ([3]; treated groups) was “decreased”, the urine specific gravity ([3]; treated groups) was “increased” and the water solubility (water solubility) was “high water solubility”. For the same compound, the mutagenic properties (Balb cells) was “no mutagenic properties”, the mutagenic properties (mouse lymphoma) was “no mutagenic properties” and the “radioactivity retained in carcass” value ([4]; all groups) was “less than 1%”. For the same compound, the “excretion of radiolabel in the feces, of the recovered dose” value ([4]; corrected for recovery) was 6 to 9%, the “urinary excretion, of the recovered dose” value ([4]; corrected for recovery, average, all three test groups) was “approximately 90%” and the “differences in the rates or routes of excretion between treatment groups” value ([4]; radiolabeled D-allose) was “no substantial differences”. For the same compound, the radioactivity excretion routes ([4]; radiolabeled D-allose, rats) was “most of the radioactivity was excreted in the urine with a small amount in the feces and lesser amounts in exhaled air and retained in the carcass”, the “Radiation in exhaled air” value ([4]; rat, in vivo) was “less than 0.5%” and the “effects on survival, appearance, behavior, body weights, food consumption or water consumption” value ([4]; rat, in vivo) was “no D-allose-related effects”. The “segmented neutrophils in some high dose group animals” value ([5]; 5.1 g/Kg/day, 28 days) was “very low or not countable”, the “platelets (result in words)” value ([5]; 28 days gavage, 3.1 and 5.1 g/Kg/day, both sexes) was “significant reduction in platelet formation; also recorded: dose-related reduction in numbers in both sexes; also recorded: dose-related reduction in platelet counts in both sexes” and the “segmented neutrophils (result in words)” value ([5]; 28 days gavage, 3.1 and 5.1 g/Kg/day, rats) was “dose-related reduction in segmented neutrophil production; also recorded: marked decrease in segmented neutrophils which was dose-related; also recorded: reduction in segmented neutrophils”. The “effect on the erythroid series” value ([5]; 28 days gavage, rats) was “no apparent effect on the erythroid series”, the “total leukocyte counts (result in words)” value ([5]; 28 days gavage, rats) was “reductions in total leukocyte counts” and the “Segmented Neutrophils (mean)” value ([5]; females, D-allose 3.1 g/kg/day, control 1.8) was 0.5 × 10^3 /cmm. The “Band Neutrophils (mean)” value ([5]; females, D-allose 3.1 g/kg/day) was 0.0 × 10^3 /cmm, the “Basophils (mean)” value ([5]; females, D-allose 3.1 g/kg/day) was 0.0 × 10^3 /cmm and the “Other Cells (mean)” value ([5]; females, D-allose 3.1 g/kg/day) was 0.0 × 10^3 /cmm. For the same compound, the “Eosinophils (mean)” value [5, 7] was 0.1 × 10^3 /cmm, the “Monocytes (mean)” value [5, 7] was 0.1 × 10^3 /cmm and the “Erythrocytes (mean)” value ([5]; females, D-allose 3.1 g/kg/day, control 6.17) was 6.24 × 10^6 /cumm. For the same compound, the “Leukocytes (mean)” value ([5]; females, D-allose 3.1 g/kg/day) was 6.5 × 10^3 /cumm, the “Platelets (mean)” value ([5]; females, D-allose 3.1 g/kg/day, control 992) was 567 × 10^3 /cmm and the “Segmented Neutrophils (mean)” value ([5]; females, D-allose 5.1 g/kg/day, control 1.8) was 0.1 × 10^3 /cmm. For the same compound, the “Band Neutrophils (mean)” value ([5]; females, D-allose 5.1 g/kg/day) was 0.0 × 10^3 /cmm, the “Basophils (mean)” value ([5]; females, D-allose 5.1 g/kg/day) was 0.0 × 10^3 /cmm and the “Other Cells (mean)” value ([5]; females, D-allose 5.1 g/kg/day) was 0.0 × 10^3 /cmm. The “Eosinophils (mean)” value ([5]; females, D-allose 5.1 g/kg/day, control 0.1) was 0.1 × 10^3 /cmm, the “Erythrocytes (mean)” value ([5]; females, D-allose 5.1 g/kg/day, control 6.17) was 6.42 × 10^6 /cumm and the “Leukocytes (mean)” value ([5]; females, D-allose 5.1 g/kg/day) was 5.4 × 10^3 /cumm. The “Platelets (mean)” value ([5]; females, D-allose 5.1 g/kg/day, control 992) was 414 × 10^3 /cmm, the “Segmented Neutrophils (mean)” value ([5]; males, D-allose 3.1 g/kg/day, control 1.9) was 0.9 × 10^3 /cmm and the “Band Neutrophils (mean)” value ([5]; males, D-allose 3.1 g/kg/day) was 0.0 × 10^3 /cmm. The “Basophils (mean)” value ([5]; males, D-allose 3.1 g/kg/day) was 0.0 × 10^3 /cmm, the “Other Cells (mean)” value ([5]; males, D-allose 3.1 g/kg/day) was 0.0 × 10^3 /cmm and the “Eosinophils (mean)” value [5, 8] was 0.1 × 10^3 /cmm. The “Monocytes (mean)” value [5, 8] was 0.1 × 10^3 /cmm, the “Erythrocytes (mean)” value ([5]; males, D-allose 3.1 g/kg/day, control 6.85) was 7.10 × 10^6 /cumm and the “Lymphocytes (mean)” value ([5]; males, D-allose 3.1 g/kg/day) was 9.1 × 10^3 /cmm. The “Leukocytes (mean)” value ([5]; males, D-allose 3.1 g/kg/day) was 10.3 × 10^3 /cumm, the “Platelets (mean)” value ([5]; males, D-allose 3.1 g/kg/day, control 1072) was 546 × 10^3 /cmm and the “Segmented Neutrophils (mean)” value ([5]; males, D-allose 5.1 g/kg/day, control 1.9) was 0.2 × 10^3 /cmm. For the same compound, the “Band Neutrophils (mean)” value ([5]; males, D-allose 5.1 g/kg/day) was 0.0 × 10^3 /cmm, the “Basophils (mean)” value ([5]; males, D-allose 5.1 g/kg/day) was 0.0 × 10^3 /cmm and the “Other Cells (mean)” value ([5]; males, D-allose 5.1 g/kg/day) was 0.0 × 10^3 /cmm. The “Eosinophils (mean)” value [5, 9] was 0.1 × 10^3 /cmm, the “Monocytes (mean)” value [5, 9] was 0.1 × 10^3 /cmm and the “Erythrocytes (mean)” value ([5]; males, D-allose 5.1 g/kg/day, control 6.85) was 7.03 × 10^6 /cumm. For the same compound, the “Lymphocytes (mean)” value ([5]; males, D-allose 5.1 g/kg/day) was 5.6 × 10^3 /cmm, the “Leukocytes (mean)” value ([5]; males, D-allose 5.1 g/kg/day, significantly different from control) was 5.9 × 10^3 /cumm and the “Platelets (mean)” value ([5]; males, D-allose 5.1 g/kg/day, control 1072) was 320 × 10^3 /cmm. For the same compound, the “duration of suppressive effect” value ([5]; rats, suppression of segmented neutrophil and platelet production) was “remains only so long as D-allose administration is continued”.
